This note sets out measurements from US20240116985A1, “STAPLED PEPTIDES AND METHODS THEREOF” (priority 2020, published 2024).

Values after ≈ are worked out from the molar mass of the structure shown. Like-named read-outs stand apart in the source and are kept apart here.

Data set [1] concerns the target T1, full-length beta-Catenin (Uniprot ID P35222) (Homo sapiens, UniProt P35222).
T1 construct: 10 nM full-length beta-Catenin (Uniprot ID P35222)
T1 sequence (P35222 1-781): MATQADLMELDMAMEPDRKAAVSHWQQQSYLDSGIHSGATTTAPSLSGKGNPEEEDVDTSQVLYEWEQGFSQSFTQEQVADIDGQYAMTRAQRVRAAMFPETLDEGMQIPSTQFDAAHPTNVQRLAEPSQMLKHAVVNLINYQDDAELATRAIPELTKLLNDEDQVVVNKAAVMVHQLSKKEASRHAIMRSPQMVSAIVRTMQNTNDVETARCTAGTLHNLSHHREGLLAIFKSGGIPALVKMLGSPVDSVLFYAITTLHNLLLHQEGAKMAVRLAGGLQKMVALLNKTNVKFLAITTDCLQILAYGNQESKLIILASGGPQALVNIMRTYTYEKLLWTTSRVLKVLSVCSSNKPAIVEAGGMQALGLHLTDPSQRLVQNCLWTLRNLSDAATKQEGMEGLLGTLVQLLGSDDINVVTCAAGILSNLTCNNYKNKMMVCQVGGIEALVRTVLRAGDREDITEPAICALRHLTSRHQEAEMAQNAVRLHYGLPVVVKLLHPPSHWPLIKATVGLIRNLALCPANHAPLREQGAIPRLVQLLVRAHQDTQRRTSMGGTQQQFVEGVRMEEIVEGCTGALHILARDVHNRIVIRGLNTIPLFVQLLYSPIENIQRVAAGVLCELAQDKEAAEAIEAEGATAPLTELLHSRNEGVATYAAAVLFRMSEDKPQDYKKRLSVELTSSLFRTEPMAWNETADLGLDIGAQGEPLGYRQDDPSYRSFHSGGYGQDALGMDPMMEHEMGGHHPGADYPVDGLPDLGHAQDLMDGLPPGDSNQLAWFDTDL
As to the kind of experiment: Fluorescence polarization IC50 (beta-catenin / 5FAM-TCF4 10-53 competition). The data set is classed as binding. On the technique in general: Polarisation of emitted light reports the rotation of a fluorescent probe.

The nature of another data set: Solubility in PBS. The data set is classed as physicochemical. The method in brief: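 Steps: ultracentrifuge the peptide PBS solution, inject the supernatant on HPLC, inject a 50 μM peptide DMSO solution as reference, then calculate solubility as area ratio (PBS/DMSO) × 50 uM.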
The next data set can be described thus: CHI Log D procedure. It counts as physicochemical. As to conditions: for CHI Log D: pH 7.4; for chromatographic logD: pH 7.4, CHI Log D.
Where [2] appears, read: fluorescence polarization, read-out: beta-Catenin FP IC50.

A word on the Solubility: it is the dissolved amount per volume that the medium holds. Read a low Solubility as little dissolved substance. Regarding `CC[C@H](C)[C@@H]1NC(=O)[C@H](CC(=O)O)NC(=O)[C@]2(CC=CCCCC3(CCCC=CCCCCCC[C@@](C)(C(=O)N[C@@H](Cc4ccsc4)C(=O)N[C@@H](Cc4csc5ccccc45)C(=O)N[C@@H](Cc4c[nH]cn4)C(N)=O)NC(=O)[C@H](CC(N)=O)NC(=O)[C@H](Cc4ccccc4)NC(=O)[C@H](C)NC(=O)[C@H](C)NC(=O)[C@H](CC(=O)O)NC(=O)[C@H](CC(=O)O)NC3=O)NC1=O)CCCN2C(C)=O` (stereo partly drawn) [I-555, Ac-PL3-Asp-Ile-B5-Asp-Asp-Ala-Ala-Phe-Asn-S8-3Thi-BztA-His-NH2], the IC50 in data set [1] (setting [2]) and in data set [1] (read-out: FP EC50) was 41 nM each time. For the same compound, in the data set “Solubility in PBS”, the “Solubility” value was found to be 41 µM (≈ 76.7 µg/mL). Besides, the “CHI Log D” value in the data set “CHI Log D procedure” came to 2.374.
Turning to `CC[C@H](C)[C@@H]1NC(=O)[C@H](CC(=O)O)NC(=O)[C@]2(CC=CCCCC3(CCCC=CCCCCCC[C@@](C)(C(=O)N[C@@H](Cc4ccsc4)C(=O)N[C@@H](Cc4csc5ccccc45)C(=O)N[C@@H](Cc4c[nH]cn4)C(N)=O)NC(=O)[C@H](CC(N)=O)NC(=O)[C@H](Cc4ccccc4)NC(=O)[C@H](C)NC(=O)[C@H](C)NC(=O)[C@H](CC(=O)O)NC(=O)[C@H](CC(=O)O)NC3=O)NC1=O)CCCN2C(C)=O` (stereo partly drawn) [I-556, Ac-PL3-Asp-Ile-B5-Asp-Asp-Ala-Ala-Phe-Asn-S8-3Thi-BztA-His-NH2], the IC50 in data set [1] (setting [2]) and in data set [1] (read-out: FP EC50) was 20 nM throughout. Moreover, the “Solubility” value in the data set “Solubility in PBS” came out at 39 µM (≈ 72.9 µg/mL). For the same compound, the “CHI Log D” value in “CHI Log D procedure” turned out to be 2.435.
Consider `CC(=O)N1CCC[C@]12CC=CCCCC1(CCCC=CCCCCCC[C@@](C)(C(=O)N[C@@H](Cc3ccccc3)C(=O)N[C@@H](Cc3csc4ccccc34)C(=O)N[C@@H](Cc3c[nH]cn3)C(N)=O)NC(=O)[C@H](CCC(N)=O)NC(=O)[C@H](Cc3ccccc3)NC(=O)[C@H](C)NC(=O)[C@H](C)NC(=O)[C@H](CC(=O)O)NC(=O)[C@H](CC(=O)O)NC1=O)NC(=O)[C@H](CC(C)C)NC(=O)[C@H](CC(=O)O)NC2=O` (stereo partly drawn) [I-561, Ac-PL3-Asp-Leu-B5-Asp-Asp-Ala-Ala-Phe-Gln-S8-Phe-BztA-His-NH2], for which the IC50 in data set [1] (setting [2]) and in data set [1] (read-out: FP EC50) was 34 nM each time. The “Solubility” value in the data set “Solubility in PBS” was 14 µM (≈ 26.3 µg/mL). For the same compound, in “CHI Log D procedure”, the “CHI Log D” value was 2.437.
Regarding `CC[C@@H]1NC(=O)[C@H](CC(=O)O)NC(=O)[C@]2(CC=CCCCC3(CCCC=CCCCCCC[C@@](C)(C(=O)N[C@@H](Cc4ccccc4)C(=O)N[C@@H](Cc4csc5ccccc45)C(=O)N[C@@H](CCC(N)=O)C(N)=O)NC(=O)[C@H](CCC(N)=O)NC(=O)[C@H](Cc4ccccc4)NC(=O)[C@H](C)NC(=O)[C@H](C)NC(=O)[C@H](CCC(=O)O)NC(=O)[C@H](CC(=O)O)NC3=O)NC1=O)CCCN2C(C)=O` (stereo partly drawn) [I-569, Ac-PL3-Asp-Abu-B5-Asp-Glu-Ala-Ala-Phe-Gln-S8-Phe-BztA-Gln-NH2], the IC50 in data set [1] (setting [2]) and in data set [1] (read-out: FP EC50) was 42 nM in each case. Moreover, the “Solubility” value in “Solubility in PBS” is 49 µM (≈ 90.9 µg/mL). The “CHI Log D” value in the data set “CHI Log D procedure” worked out at 2.169.
For the compound `CC[C@@H]1NC(=O)[C@H](CC(=O)O)NC(=O)[C@]2(CC=CCCCC3(CCCC=CCCCCCC[C@@](C)(C(=O)N[C@@H](Cc4ccccc4)C(=O)N[C@@H](Cc4csc5ccccc45)C(=O)N[C@@H](Cc4c[nH]cn4)C(N)=O)NC(=O)[C@H](CC(N)=O)NC(=O)[C@H](Cc4ccccc4)NC(=O)[C@H](C)NC(=O)[C@H](C)NC(=O)[C@H](CC(=O)O)NC(=O)[C@H](CC(=O)O)NC3=O)NC1=O)CCCN2C(C)=O` (stereo partly drawn) [I-575, Ac-PL3-Asp-Abu-B5-Asp-Asp-Ala-Ala-Phe-Asn-S8-Phe-BztA-His-NH2], the IC50 in data set [1] (setting [2]) and in data set [1] (read-out: FP EC50) was 21 nM throughout. Moreover, the “Solubility” value in the data set “Solubility in PBS” was found to be 46 µM (≈ 84.5 µg/mL). Further, the “CHI Log D” value in the data set “CHI Log D procedure” came out at 2.21.
Turning to `CC[C@H](C)[C@@H]1NC(=O)[C@H](CC(=O)O)NC(=O)[C@]2(CC=CCCCC3(CCCC=CCCCCCC[C@@](C)(C(=O)N[C@@H](Cc4ccccc4)C(=O)N[C@@H](Cc4csc5ccccc45)C(=O)N[C@@H](Cc4c[nH]cn4)C(N)=O)NC(=O)[C@H](CCC(N)=O)NC(=O)[C@H](Cc4ccccc4)NC(=O)[C@H](C)NC(=O)[C@H](C)NC(=O)[C@H](CC(=O)O)NC(=O)[C@H](CC(=O)O)NC3=O)NC1=O)CCCN2C(C)=O` (stereo partly drawn) [I-580, Ac-PL3-Asp-Ile-B5-Asp-Asp-Ala-Ala-Phe-Gln-S8-Phe-BztA-His-NH2], the IC50 in data set [1] (setting [2]) and in data set [1] (read-out: FP EC50) was 114 nM each time. Besides, the “Solubility” value in “Solubility in PBS” is 24 µM (≈ 45.1 µg/mL). In addition, the “CHI Log D” value in “CHI Log D procedure” is listed as 2.436.
On to `CC(=O)N1CCC[C@]12CC=CCCCC1(CCCC=CCCCCCC[C@@](C)(C(=O)N[C@@H](Cc3ccccc3)C(=O)N[C@@H](Cc3csc4ccccc34)C(=O)N[C@@H](Cc3c[nH]cn3)C(N)=O)NC(=O)[C@H](CC(N)=O)NC(=O)[C@H](Cc3ccccc3)NC(=O)[C@H](C)NC(=O)[C@H](C)NC(=O)[C@H](CC(=O)O)NC(=O)[C@H](CC(=O)O)NC1=O)NC(=O)[C@H](CCC(C)C)NC(=O)[C@H](CC(=O)O)NC2=O` (stereo partly drawn) [I-584, Ac-PL3-Asp-hLeu-B5-Asp-Asp-Ala-Ala-Phe-Asn-S8-Phe-BztA-His-NH2], for which the IC50 in data set [1] (setting [2]) and in data set [1] (read-out: FP EC50) was 33 nM in each case. For the same compound, in “Solubility in PBS”, the “Solubility” value stood at 21 µM (≈ 39.4 µg/mL). The “CHI Log D” value in “CHI Log D procedure” amounted to 2.635.
The chromatographic logD is a lipophilicity value derived from retention on a column. High values mean a more lipophilic compound, low ones a more hydrophilic compound. As for `CC[C@H](C)[C@@H]1NC(=O)[C@H](CC(=O)O)NC(=O)[C@]2(CC=CCCCC3(CCCC=CCCCCCC[C@@](C)(C(=O)N[C@@H](Cc4ccccc4)C(=O)N[C@@H](Cc4csc5ccccc45)C(=O)N[C@@H](CCC(N)=O)C(N)=O)NC(=O)[C@H](CCC(N)=O)NC(=O)[C@H](Cc4ccccc4)NC(=O)[C@H](C)NC(=O)[C@H](C)NC(=O)[C@H](CCC(=O)O)NC(=O)[C@H](CC(=O)O)NC3=O)NC1=O)CCCN2C(=O)c1cccnc1` (stereo partly drawn) [I-598, Nic-PL3-Asp-Ile-B5-Asp-Glu-Ala-Ala-Phe-Gln-S8-Phe-BztA-Gln-NH2], in data set [1] (setting [2]), the IC50 came out at 845 nM. The same compound had a Solubility in the data set “Solubility in PBS” (Solubility (uM)) of 49 µM (≈ 95.4 µg/mL). This compound gave a chromatographic logD in the data set “CHI Log D procedure” of 2.24.
For `CC[C@H](C)[C@@H]1NC(=O)[C@H](CC(=O)O)NC(=O)[C@]2(CC=CCCCC3(CCCC=CCCCCCC[C@@](C)(C(=O)N[C@@H](Cc4ccccc4)C(=O)N[C@@H](Cc4csc5ccccc45)C(=O)N[C@@H](CCC(N)=O)C(N)=O)NC(=O)[C@H](CCC(N)=O)NC(=O)[C@H](Cc4ccccc4)NC(=O)[C@H](C)NC(=O)[C@H](C)NC(=O)[C@H](CCC(=O)O)NC(=O)[C@H](CC(=O)O)NC3=O)NC1=O)CCCN2C(=O)c1ccccn1` (stereo partly drawn) [I-599, Pic-PL3-Asp-Ile-B5-Asp-Glu-Ala-Ala-Phe-Gln-S8-Phe-BztA-Gln-NH2] the same measures were 138 nM, 45 µM (≈ 87.6 µg/mL) and 2.42.
On to `CC[C@H](C)[C@@H]1NC(=O)[C@H](CC(=O)O)NC(=O)[C@]2(CC=CCCCC3(CCCC=CCCCCCC[C@@](C)(C(=O)N[C@@H](Cc4ccccc4)C(=O)N[C@@H](Cc4csc5ccccc45)C(=O)N[C@@H](CCC(N)=O)C(N)=O)NC(=O)[C@H](CCC(N)=O)NC(=O)[C@H](Cc4ccccc4)NC(=O)[C@H](C)NC(=O)[C@H](C)NC(=O)[C@H](CCC(=O)O)NC(=O)[C@H](CC(=O)O)NC3=O)NC1=O)CCCN2C(=O)Cc1ccccc1` (stereo partly drawn) [I-600, Bnc-PL3-Asp-Ile-B5-Asp-Glu-Ala-Ala-Phe-Gln-S8-Phe-BztA-Gln-NH2], for which the IC50 in data set [1] (read-out: FP EC50) was found to be 796 nM; in data set [1] (read-out: beta-Catenin FP IC50, fluorescence polarization), 796 nM. Moreover, the “Solubility” value in the data set “Solubility in PBS” turned out to be 47 µM (≈ 92.1 µg/mL). Besides, the “CHI Log D” value in the data set “CHI Log D procedure” is recorded as 2.694.
